Results: patent publication US11591355B2 (Peloton Therapeutics, Inc., priority 2017, dated 2023)

How the values were obtained:
[1] = target: T1, Human CD73 (Homo sapiens, UniProt P21589); experiment: CD73 Enzyme Assay; assay type: biochemical; details: 0.25 nM hCD73, 25 μM AMP, kinetic read at 360 nm; read-out: CD73 Enzyme Assay IC50
T1 construct: purchased R&D Systems; host or cells: CHO cells
T1 sequence (P21589 27-549): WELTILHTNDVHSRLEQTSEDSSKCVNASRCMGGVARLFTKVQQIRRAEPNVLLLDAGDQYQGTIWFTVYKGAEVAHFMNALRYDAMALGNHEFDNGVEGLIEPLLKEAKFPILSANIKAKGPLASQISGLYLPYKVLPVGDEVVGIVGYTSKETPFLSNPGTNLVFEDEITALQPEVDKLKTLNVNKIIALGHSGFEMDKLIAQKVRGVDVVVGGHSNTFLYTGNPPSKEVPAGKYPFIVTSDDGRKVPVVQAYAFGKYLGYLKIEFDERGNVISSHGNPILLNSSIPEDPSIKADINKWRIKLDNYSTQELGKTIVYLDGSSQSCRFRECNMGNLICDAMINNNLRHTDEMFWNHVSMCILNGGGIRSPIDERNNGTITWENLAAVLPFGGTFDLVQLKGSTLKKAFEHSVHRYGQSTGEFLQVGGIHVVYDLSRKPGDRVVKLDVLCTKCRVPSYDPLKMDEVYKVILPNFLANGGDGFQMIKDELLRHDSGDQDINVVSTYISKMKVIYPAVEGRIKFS

[2] = target: T2, CD73 on U138 human neuroglioma cells (Homo sapiens, UniProt P21589); experiment: CD73 Cell-Based Assay; details: U138 cells, AMP substrate, 2 hours at 37° C., inorganic phosphate by malachite green
T2 construct: U138 cells were obtained from ATCC and cultured in DMEM with 10% FBS; host or cells: U138 human neuroglioma cells
T2 sequence (P21589 27-549): T1 sequence (P21589 27-549)
Protocol: U138 human neuroglioma cells were used in these experiments. U138 cells were obtained from ATCC and cultured in DMEM with 10% FBS. 2500 cells were seeded into 96-well plate with 100 μL of media the day before the experiment. Cells were washed twice with 200 μL of assay buffer (20 mM HEPES, pH 7.4; 137 mM NaCl; 5.4 mM KCl; 1.3 mM CaCl2); 4.2 mM NaHCO3; 1 mg/mL glucose) to remove residual inorganic phosphate. After washing, 100 μL of buffer was added to each well, then 100 μL of a mixture of AMP substrate (200 μM) and diluted compound was added to each well. The cells were incubated at 37° C. (with 5% CO2) for 2 hours. 50 μL of supernatant was transferred to a 96-well assay plate and the concentration of inorganic phosphate was determined using malachite green reagent (R&D System; Cat: DY996).

| Compound | IC50 [1] [nM] | IC50 [2] [nM] |
| --- | --- | --- |
| O=P(O)(O)COC[C@H]1O[C@@H](n2cnc3c(NCc4ccccc4)nc(Cl)nc32)[C@H](O)[C@@H]1O [Compound 3, [(2R,3S,4R,5R)-5-[6-(benzylamino)-2-chloro-purin-9-yl]-3,4-dihydroxy-tetrahydrofuran-2-yl]methoxymethyl-phosphonic acid] | 100 to 1000 | 10 to 100 |
| N#Cc1nc(NCc2ccccc2)c2ncn([C@@H]3O[C@H](COCP(=O)(O)O)[C@@H](O)[C@H]3O)c2n1 [Compound 4, [(2R,3S,4R,5R)-5-[6-(benzylamino)-2-cyano-purin-9-yl]-3,4-dihydroxy-tetrahydrofuran-2-yl]methoxymethyl-phosphonic acid] | < 10 | 100 to 1000 |
| Cn1cc(-c2nc(NCc3ccccc3)c3ncn([C@@H]4O[C@H](COCP(=O)(O)O)[C@@H](O)[C@H]4O)c3n2)cn1 [Compound 9, [(2R,3S,4R,5R)-5-[6-(benzylamino)-2-(1-methylpyrazol-4-yl)-purin-9-yl]-3,4-dihydroxy-tetrahydro-furan-2-yl]methoxy-methylphosphonic acid] | 100 to 1000 | > 1000 |
| CC(C)Nc1ncnc2c1ncn2[C@@H]1O[C@H](COCP(=O)(O)O)[C@@H](O)[C@H]1O [Compound 12, [(2R,3S,4R,5R)-3,4-dihydroxy-5-[6-(iso-propylamino)purin-9-yl]tetrahydrofuran-2-yl]methoxymethyl-phosphonic acid] | 100 to 1000 | > 1000 |
| CC(C)Nc1nc(Cl)nc2c1ncn2[C@@H]1O[C@H](COCP(=O)(O)O)[C@@H](O)[C@H]1O [Compound 15, [(2R,3S,4R,5R)-5-[2-chloro-6-(isopropyl-amino)purin-9-yl]-3,4-dihydroxy-tetra-hydrofuran-2-yl]-methoxymethylphos-phonic acid] | 10 to 100 | 100 to 1000 |
| CC(C)Nc1nc(C#N)nc2c1ncn2[C@@H]1O[C@H](COCP(=O)(O)O)[C@@H](O)[C@H]1O [Compound 16, [(2R,3S,4R,5R)-5-[2-cyano-6-(isopropyl-amino)purin-9-yl]-3,4-dihydroxy-tetrahydrofuran-2-yl]methoxymethyl-phosphonic acid] | 10 to 100 | 100 to 1000 |
| CC(Nc1ncnc2c1ncn2[C@@H]1O[C@H](COCP(=O)(O)O)[C@@H](O)[C@H]1O)c1ccccc1 (stereo partly drawn) [Compound 18, [(2R,3S,4R,5R)-3,4-dihydroxy-5-[6-(1-phenylethylamino)purin-9-yl]tetrahydrofuran-2-yl]methoxymethylphosphonic acid] | 100 to 1000 | 100 to 1000 |
| C[C@@H](Nc1nc(Cl)nc2c1ncn2[C@@H]1O[C@H](COCP(=O)(O)O)[C@@H](O)[C@H]1O)c1ccccc1 [Compound 20, [(2R,3S,4R,5R)-5-[2-chloro-6-[[(1R)-1-phenylethyl]amino]-purin-9-yl]-3,4-dihydroxy-tetrahydro-furan-2-yl]methoxy-methylphosphonic acid] | 10 to 100 | 10 to 100 |
| C[C@H](Nc1nc(Cl)nc2c1ncn2[C@@H]1O[C@H](COCP(=O)(O)O)[C@@H](O)[C@H]1O)c1ccccc1 [Compound 21, ((((2R,3S,4R,5R)-5-(2-chloro-6-(((S)-1-phenylethyl)amino)-9H-purin-9-yl)-3,4-dihydroxytetrahydrofuran-2-yl)methoxy)methyl)phosphonic acid] | 10 to 100 | 10 to 100 |
| O=P(O)(O)COC[C@H]1O[C@@H](n2cnc3c(NC4CCCC4)ncnc32)[C@H](O)[C@@H]1O [Compound 32, [(2R,3S,4R,5R)-5-[6-(cyclopentylamino)-purin-9-yl]-3,4-dihydroxy-tetrahydro-furan-2-yl]methoxy-methylphosphonic acid] | 100 to 1000 | 100 to 1000 |
| C[C@H](Nc1nc(C#N)nc2c1ncn2[C@@H]1O[C@H](COCP(=O)(O)O)[C@@H](O)[C@H]1O)c1ccccc1 [Compound 36, [(2R,3S,4R,5R)-5-[2-cyano-6-[[(1S)-1-phenylethyl]amino]purin-9-yl]-3,4-dihydroxy-tetrahydrofuran-2-yl]methoxymethylphosphonic acid; 2,2,2-trifluoroacetic acid] | 10 to 100 | 10 to 100 |
| O=P(O)(O)COC[C@H]1O[C@@H](n2cnc3c(N4CCCC4)ncnc32)[C@H](O)[C@@H]1O [Compound 43, [(2R,3S,4R,5R)-3,4-dihydroxy-5-(6-pyrrolidin-1-ylpurin-9-yl)tetrahydrofuran-2-yl]methoxymethyl-phosphonic acid] | 100 to 1000 | 100 to 1000 |
| O=P(O)(O)COC[C@H]1O[C@@H](n2cnc3c(-c4ccccc4)ncnc32)[C@H](O)[C@@H]1O [Compound 46, [(2R,3S,4R,5R)-3,4-dihydroxy-5-(6-phenylpurin-9-yl)tetrahydrofuran-2-yl]methoxymethylphosphonic acid] | > 1000 | > 1000 |
| C[C@H](Nc1ncnc2c1ncn2[C@@H]1O[C@H](COCP(=O)(O)O)[C@@H](O)[C@H]1O)c1ccc(F)cc1 [Compound 49, [(2R,3S,4R,5R)-5-[6-[[(1S)-1-(4-fluoro-phenyl)ethyl]amino]-purin-9-yl]-3,4-dihydroxy-tetrahydro-furan-2-yl]methoxy-methylphosphonic acid] | 10 to 100 | 10 to 100 |
| O=P(O)(O)COC[C@H]1O[C@@H](n2cnc3c(NC4CCc5ccccc54)ncnc32)[C@H](O)[C@@H]1O (stereo partly shown) [Compound 52] | 100 to 1000 | 100 to 1000 |
| O=P(O)(O)COC[C@H]1O[C@@H](n2cnc3c(N4Cc5ccccc5C4)nc(Cl)nc32)[C@H](O)[C@@H]1O [Compound 54, [(2R,3S,4R,5R)-5-(2-chloro-6-isoindolin-2-yl-purin-9-yl)-3,4-dihydroxy-tetrahydro-furan-2-yl]methoxy-methylphosphonic acid] | 10 to 100 | 10 to 100 |
| O=P(O)(O)COC[C@H]1O[C@@H](n2cnc3c(OC4CCCC4)ncnc32)[C@H](O)[C@@H]1O [Compound 55, [(2R,3S,4R,5R)-5-[6-(cyclopentoxy)purin-9-yl]-3,4-dihydroxy-tetrahydrofuran-2-yl]-methoxymethylphos-phonic acid] | 100 to 1000 | > 1000 |
| O=P(O)(O)COC[C@H]1O[C@@H](n2ccc3c(NCc4ccccc4)nc(Cl)nc32)[C@H](O)[C@@H]1O [Compound 56, [(2R,3S,4R,5R)-5-[4-(benzylamino)-2-chloro-pyrrolo[2,3-d]-pyrimidin-7-yl]-3,4-dihydroxy-tetrahydro-furan-2-yl]methoxy-methylphosphonic acid] | 10 to 100 | 10 to 100 |
| O=P(O)(O)COC[C@H]1O[C@@H](n2cnc3c(NCc4ccccc4)cc(Cl)nc32)[C@H](O)[C@@H]1O [Compound 57, [(2R,3S,4R,5R)-5-[7-(benzylamino)-5-chloro-imidazo[4,5-b]pyridin-3-yl]-3,4-dihydroxy-tetrahydrofuran-2-yl]methoxymethylphosphonic acid] | 100 to 1000 | 100 to 1000 |
| C[C@H](Nc1nc(Cl)nc2c1ccn2[C@@H]1O[C@H](COCP(=O)(O)O)[C@@H](O)[C@H]1O)c1ccccc1 [Compound 60, [(2R,3S,4R,5R)-5-[2-chloro-4-[[(1S)-1-phenylethyl]amino]-pyrrolo[2,3-d]-pyrimidin-7-yl]-3,4-dihydroxy-tetrahydro-furan-2-yl]methoxy-methylphosphonic acid] | < 10 | 10 to 100 |
| C[C@@H](Nc1nc(Cl)nc2c1ccn2[C@@H]1O[C@H](COCP(=O)(O)O)[C@@H](O)[C@H]1O)c1ccccc1 [Compound 61, [(2R,3S,4R,5R)-5-[2-chloro-4-[[(1R)-1-phenylethyl]amino]pyrrolo[2,3-d]pyrimidin-7-yl]-3,4-dihydroxy-tetrahydrofuran-2-yl]methoxymethylphosphonic acid] | < 10 | < 10 |
| C[C@@H](Nc1nc(C#N)nc2c1ccn2[C@@H]1O[C@H](COCP(=O)(O)O)[C@@H](O)[C@H]1O)c1ccccc1 [Compound 62, [(2R,3S,4R,5R)-5-[2-cyano-4-[[(1R)-1-phenylethyl]amino]pyrrolo[2,3-d]pyrimidin-7-yl]-3,4-dihydroxy-tetrahydrofuran-2-yl]methoxymethylphosphonic acid] | < 10 | < 10 |
| C[C@H](Nc1nc(C#N)nc2c1ccn2[C@@H]1O[C@H](COCP(=O)(O)O)[C@@H](O)[C@H]1O)c1ccccc1 [Compound 67, [(2R,3S,4R,5R)-5-[2-cyano-4-[[(1S)-1-phenylethyl]amino]-pyrrolo[2,3-d]-pyrimidin-7-yl]-3,4-dihydroxy-tetrahydro-furan-2-yl]methoxy-methylphosphonic acid] | 10 to 100 | < 10 |
